Here are results for 1 substance from PMC13379236 (Cell reports, 2026).

The test system of assay [1] is ZYG11B. The note with it: cited from earlier work.
Another assay deals with innate immune response. The conditions noted are these: cited from earlier work.
Assay [2] concerns ZYG11B. The class given is cell-based, human.
The next assay concerns NLRP1 inflammasome. The class given is cell-based, human.

“Also recorded” adds a separate entry of the source.

Consider “ORF10: SARS-CoV-2 protein ORF10, overexpressed”, for which the “interaction with ZYG11B” value in the assay with ZYG11B [1] was “interacts with ZYG11B”. Further, in the assay with innate immune response, the “effect on innate immune response” value is recorded as “can suppress the innate immune response”. In the assay on ZYG11B [2], the “ORF10 binding to ZYG11B E644K” value is on record as “decrease the binding”, the “ORF10 binding to ZYG11B K515E” value was “substantially enhance binding” and the “ORF10 binding to ZYG11B R466A” value is reported as “minimal effect; also recorded: did not strongly affect ORF10 binding”. In the assay on NLRP1 inflammasome, the “effect of ORF10 on inflammasome activation with NLRP1 E133K” value was “no decrease in inflammasome activation” and the “inhibition of HRV 3Cpro-mediated activation of wild-type NLRP1” value is listed as “could inhibit HRV 3Cpro-mediated activation of NLRP1”.
